Values quoted from earlier work, collected in US20090239285A1, “TANDEM REAPEAT DNA CONSTRUCTS PRODUCING PROTEINS THAT ATTACK PLANT PATHOGENIC VIRUSES, FUNGI, AND BACTERIA BY DISRUPTING TRANSCRIPTION FACTORS ESSENTIAL FOR REPLICATION THEREOF IN PLANTS” (priority 2008, published 2009).

Test system: rice blast fungus Magnaporthe grisea
Settings: PA treated plants; doses in range 0.5 mg/mL; cited from earlier work

SMILES: O=C(O)c1ccccn1 [Picolinic acid, 2-pyridine carboxylic acid]
- resistance against M. grisea: enhanced
